Measured values: patent US7786136B2, “Indazole-carboxamide compounds” (Theravance, Inc., priority 2004, dated 2010)

Experiment: Pharmacokinetic study in the rat
Format: in vivo
Protocol: Pharmacokinetic Study in the Rat
Aqueous solution formulations of test compounds were prepared in 0.1% lactic acid at a pH of between about 5 and about 6. Male Sprague-Dawley rats (CD strain, Charles River Laboratories, Wilmington, Mass.) were dosed with test compounds via intravenous administration (IV) at a dose of 2.5 mg/kg or by oral gavage (PO) at a dose of 5 mg/kg. The dosing volume was 1 mL/kg for IV and 2 mL/kg for PO administration. Serial blood samples were collected from animals pre-dose, and at 2 (IV only), 5, 15, and 30 min, and at 1, 2, 4, 8, and 24 hours post-dose. Concentrations of test compounds in blood plasma were determined by liquid chromatography-mass spectrometry analysis (LC-MS/MS) (MDS SCIEX, API 4000, Applied Biosystems, Foster City, Calif.) with a lower limit of quantitation of 1 ng/mL.
Standard pharmacokinetic parameters were assessed by non-compartmental analysis (Model 201 for IV and Model 200 for PO) using WinNonlin (Version 4.0.1, Pharsight, Mountain View, Calif.). The maximum in the curve of test compound concentration in blood plasma vs. time is denoted Cmax. The area under the concentration vs. time curve from the time of dosing to the last measurable concentration (AUC(0-t)) was calculated by the linear trapezoidal rule. Oral bioavailability (F(%)), i.e. the dose-normalized ratio of AUC(0-t) for PO administration to AUC(0-t) for IV administration, was calculated as: F(%)=AUCPO/AUCIV×DoseIV/DosePO×100%

[1] = male Sprague-Dawley rats, blood plasma, IV 2.5 mg/kg or PO 5 mg/kg

SMILES: CC(C)n1nc(C(=O)N[C@H]2C[C@H]3CC[C@@H](C2)N3CC(O)CN2CCN(C(=O)C3CCCO3)CC2)c2ccccc21 (stereo partly drawn) [Example 2, 1-isopropyl-1H-indazole-3-carboxylic acid((1S,3R,5R)-8-{2-hydroxy-3-[4-(tetrahydrofuran-2-carbonyl)piperazin-1-yl]propyl}-8-aza-bicyclo[3.2.1]oct-3-yl)amide]
- AUC(0-t) [1]: 0.427 µg·h/mL
- Cmax [1]: 0.055 µg/mL
- oral bioavailability (F(%)) (rat, dose-normalized AUC(0-t) PO 5 mg/kg vs IV 2.5 mg/kg): about 30%
